From US7109338B2, “1,2-disubstituted 1,4-dihydro-4-oxoquinoline compounds” (priority 1999, dated 2006)
Values after ≈ are worked out from the molar mass of the structure shown.

Assays:
[1] = test system: Poliovirus type 1 (Polio 1, Sabin); experiment: microbe, parasite or virus in culture; assay type: cell-based
[2] = test system: human rhinovirus type 1B (HRV 1B, B632); experiment: Anti-rhinovirus activity (MTT), HRV1B; assay type: cell-based; conditions: HeLa (Ohio strain) cells, MTT method, 33° C.
[3] = test system: coxsackievirus type A7 (CA7); experiment: In vitro anti-picornavirus activity (MTT), CA7; assay type: cell-based; conditions: HeLa-S3 cells, MTT method, 37° C.
[4] = test system: coxsackievirus type B4 (CB4,JVB); experiment: In vitro anti-picornavirus activity (MTT), CB4; assay type: cell-based; conditions: HeLa cells, MTT method, 37° C.
[5] = test system: HeLa-S3 cells; experiment: Cytotoxicity (MTT, without virus), HeLa-S3; conditions: HeLa-S3, no virus, incubated for 4 days
[6] = test system: HRV 89 (41617-Gallo); experiment: Anti-rhinovirus activity (MTT), HRV89; assay type: cell-based, human rhinovirus; conditions: HeLa (Ohio strain) cells, MTT method, 33° C.
[7] = test system: HRV 2 (HGP); experiment: Anti-rhinovirus activity (MTT), HRV2; assay type: cell-based, human rhinovirus; conditions: HeLa (Ohio strain) cells, MTT method, 33° C.
[8] = test system: HeLa (Ohio strain)cells; experiment: Cytotoxicity (MTT, without virus), HeLa(Ohio); conditions: HeLa(Ohio), no virus, incubated for 4 days
[9] = test system: HeLa cells; experiment: Cytotoxicity (MTT, without virus), HeLa; conditions: HeLa, no virus, incubated for 4 days
[10] = test system: echovirus type 11 (Echo 11, Gregory); experiment: In vitro anti-picornavirus activity (MTT), Echo 11; assay type: cell-based; conditions: HeLa-S3 cells, MTT method, 37° C.

Structure (SMILES)	IC50 Polio 1 [1] [µg/mL]	IC50 HRV1B [2] [µg/mL]	IC50 CA7 [3] [µg/mL]	IC50 CB4 [4] [µg/mL]	Cytotoxicity CC50 HeLa-S3 [5] [µg/mL]	IC50 HRV89 [6] [µg/mL]	IC50 HRV2 [7] [µg/mL]	Cytotoxicity CC50 HeLa(Ohio) [8] [µg/mL]	Cytotoxicity CC50 HeLa [9] [µg/mL]	IC50 Echo 11 [10] [µg/mL]
Cc1c(-c2ccccc2)n(C)c2ccc(NCC(C)C)cc2c1=O [Compound A157]	0.59 (≈ 1.84 µM)	1.0 (≈ 3.12 µM)	3.8 (≈ 11.9 µM)	4.9 (≈ 15.3 µM)	>5	1.3 (≈ 4.06 µM)	0.56 (≈ 1.75 µM)	>5	>5	0.27 (≈ 0.843 µM)
CCn1c(-c2cccs2)cc(=O)c2cc(C(C)C)ccc21 [Compound A309]	0.76 (≈ 2.56 µM)	0.48 (≈ 1.61 µM)	3.3 (≈ 11.1 µM)	1.5 (≈ 5.04 µM)	18	0.58 (≈ 1.95 µM)	0.25 (≈ 0.841 µM)	14	12	0.28 (≈ 0.941 µM)
COc1cc2c(=O)c(C)c(-c3ccccc3)n(C)c2cc1C(C)C [Compound A226]	0.93 (≈ 2.89 µM)	1.6 (≈ 4.98 µM)	9.7 (≈ 30.2 µM)	>3.3	>10	<0.033	0.73 (≈ 2.27 µM)	>10	>10	0.33 (≈ 1.03 µM)
CCn1c(-c2nccs2)cc(=O)c2cc(C(C)C)ccc21 [Compound A319]	2.0 (≈ 6.7 µM)	1.5 (≈ 5.03 µM)	8.9 (≈ 29.8 µM)	9.4 (≈ 31.5 µM)	>50	2.0 (≈ 6.7 µM)	0.80 (≈ 2.68 µM)	32	35	0.81 (≈ 2.71 µM)
CCOc1ccc(-c2cc(=O)c3cc(C(C)C)ccc3n2C)cc1C [Compound A99]	0.55 (≈ 1.64 µM)	0.63 (≈ 1.88 µM)	1.8 (≈ 5.37 µM)	1.1 (≈ 3.28 µM)	5.8	0.14 (≈ 0.417 µM)	0.50 (≈ 1.49 µM)	5.7	5.4	0.20 (≈ 0.596 µM)
CC(C)c1ccc2c(c1)c(=O)cc(-c1cccs1)n2C [Compound A308]	0.87 (≈ 3.07 µM)	0.81 (≈ 2.86 µM)	3.9 (≈ 13.8 µM)	1.6 (≈ 5.65 µM)	16	0.94 (≈ 3.32 µM)	0.36 (≈ 1.27 µM)	11	11	0.31 (≈ 1.09 µM)
Cc1cc2c(c(C)c1OCC(C)C)c(=O)cc(-c1ccccc1)n2C [Compound A285]	0.69 (≈ 2.06 µM)	0.68 (≈ 2.03 µM)	3.1 (≈ 9.24 µM)	1.9 (≈ 5.66 µM)	>4	0.46 (≈ 1.37 µM)	0.18 (≈ 0.537 µM)	>4	>4	0.2 (≈ 0.596 µM)
CC(C)c1ccc2c(c1)c(=O)cc(-c1ccc(Br)s1)n2C [Compound A316]	0.78 (≈ 2.15 µM)	0.56 (≈ 1.55 µM)	1.2 (≈ 3.31 µM)	1.1 (≈ 3.04 µM)	>5	0.27 (≈ 0.745 µM)	0.29 (≈ 0.8 µM)	>5	>5	0.39 (≈ 1.08 µM)
CCCc1ccc2c(c1)c(=O)c(C)c(-c1ccccc1)n2CC [Compound A30]	1.0 (≈ 3.27 µM)	1.6 (≈ 5.24 µM)	1.2 (≈ 3.93 µM)	1.8 (≈ 5.89 µM)	6.5	1.0 (≈ 3.27 µM)	0.48 (≈ 1.57 µM)	5.8	6.0	0.42 (≈ 1.38 µM)
COc1ccc(-c2c(C)c(=O)c3c(C)c(OCC(C)C)ccc3n2C)cc1C [Compound A190]	0.58 (≈ 1.53 µM)	2.0 (≈ 5.27 µM)	3.2 (≈ 8.43 µM)	2.4 (≈ 6.32 µM)	>4	0.28 (≈ 0.738 µM)	0.57 (≈ 1.5 µM)	>4	>4	0.23 (≈ 0.606 µM)
